# Patent publication US20240390434A1, “PROBIOTIC ENHANCERS AND USES THEREOF” (Blis Technologies Limited, priority 2021, published 2024)
# How the values were obtained:
# H. influenzae TW5 = test: Dose response deferred antagonism assay, producer M18; assay type: cell-based; settings: 1.5% (w/v) raffinose
# [1] = tested on: halitosis-causing gram-negative bacteria F. nucleatum, P. gingivalis and P. intermedia; test: Deferred antagonism assay (anaerobic), producer M18; assay type: cell-based; settings: 2.5% w/w raffinose; or combination with 0.5% w/w galactose
# Experimental: Method: CABCa agar plates were prepared with or without 2.5% w/w raffinose, 0.5% w/w galactose or a combination of both saccharides by the addition of 0.5% (w/v) calcium carbonate to solid CAB agar in bottles and then melted by autoclaving at 110° C. for 10 mins. Once cooled, filter sterilised solutions of the saccharides or distilled water were added and mixed and then 20 ml pipetted into petri dishes.
# A deferred antagonism assay was conducted using K12 or M18 raw ingredient suspended in THB. This was spread as a 1.2 cm streak containing approximately 1-2×10^6 cfu down the middle of a CABCa control or CABCa galactose supplemented test plate. After 18 hrs growth at 37° C., 5% CO2 in air, bacterial growth was removed, and the pH of the agar in the initial streak was measured and adjusted to a pH of 6.5-7.5 using 0.5M sodium carbonate pH11 before sterilizing the agar surface using chloroform vapor. Bacterial test strains were suspended in THB and swabbed across the plates perpendicular to the initial streak and then the plates were incubated at 37° C. in an anaerobic jar containing an anaeroGen sachet for 4 days. Zones of inhibition for each test strain were then measured (mm).
smiles,measurement,setting,value
"OC[C@H]1O[C@H](OC[C@H]2O[C@H](O[C@]3(CO)O[C@H](CO)[C@@H](O)[C@@H]3O)[C@H](O)[C@@H](O)[C@@H]2O)[C@H](O)[C@@H](O)[C@H]1O [Raffinose, D-(+) Raffinose pentahydrate]",H. influenzae TW5 ZOI size,H. influenzae TW5,26 mm
same,antimicrobial activity of M18 against halitosis-causing bacteria,[1],inhibit some strains
